Laboratory results from ChEMBL document CHEMBL5346910, “N-sulfonyl peptide-hybrids as a new class of dengue virus protease inhibitors” (Eur J Med Chem, 2023).

Molecular target: T1, Trypsin (Homo sapiens, UniProt P07477+P07478+P35030)
Test: Inhibition of trypsin (unknown origin) at 50 uM by biochemical assay relative to control
Assay type: protein assay
Conditions: not given

Row | SMILES | inhibition
1 | Cc1ccc(S(=O)(=O)N[C@@H](CCCNC(=N)N)C(=O)N[C@@H](CCCCN)C(=O)N[C@@H](C(N)=O)c2ccccc2)cc1 | 21.6%
2 | Cc1cc(C)c(S(=O)(=O)N[C@@H](CCCNC(=N)N)C(=O)N[C@@H](CCCCN)C(=O)N[C@@H](C(N)=O)c2ccccc2)c(C)c1 | < 10%
3 | Cc1ccc(S(=O)(=O)N(C)[C@@H](Cc2ccc(NC(=N)N)cc2)C(=O)N[C@@H](CCCCN)C(=O)N[C@@H](C(N)=O)c2ccccc2)cc1 | 19.9%
4 | CN([C@@H](Cc1ccc(C(=N)N)cc1)C(=O)N[C@@H](CCCCN)C(=O)N[C@@H](C(N)=O)c1ccccc1)S(=O)(=O)c1ccccc1 | 19.2%
5 | CN([C@@H](Cc1ccc(C(=N)N)cc1)C(=O)N[C@@H](CCCCN)C(=O)N[C@@H](C(N)=O)c1ccc(OCc2ccc(Cl)c(Cl)c2)cc1)S(=O)(=O)c1ccccc1 | 11%
6 | CN([C@@H](Cc1ccc(/C(N)=N/O)cc1)C(=O)N[C@@H](CCCCN)C(=O)N[C@@H](C(N)=O)c1ccccc1)S(=O)(=O)c1ccccc1 | < 10%
7 | CN([C@@H](Cc1ccc(C(=N)N)cc1)C(=O)N[C@@H](CCCCN)C(=O)N[C@@H](C(N)=O)c1ccc(O)cc1)S(=O)(=O)c1ccccc1 | 14.7%

Molecular target: T2, Genome polyprotein (dengue virus type 2, UniProt P29990)
Test: Competitive inhibition of DENV-2 NS2B-NS3 protease assessed as inhibition constant by Cheng-Prusoff plot analysis
Conditions: not given

Row | SMILES | Ki
8 | CN([C@@H](Cc1ccc(C(=N)N)cc1)C(=O)N[C@@H](CCCCN)C(=O)N[C@@H](C(N)=O)c1ccc(OCc2ccc(Cl)c(Cl)c2)cc1)S(=O)(=O)c1ccccc1 | 0.078 µM

Molecular target: T1, Trypsin
Test: Stability of the compound assessed as trypsin (unknown origin) mediated compound degradation incubated for 60 mins by UV-based HPLC analysis
Assay type: ADME, protein assay
Conditions: 1 h

Row | SMILES | Stability
9 | CN([C@@H](Cc1ccc(C(=N)N)cc1)C(=O)N[C@@H](CCCCN)C(=O)N[C@@H](C(N)=O)c1ccccc1)S(=O)(=O)c1ccccc1 | Stable

Tested on: not listed separately
Test: Stability of the compound assessed as alpha-chymotrypsin (unknown origin) mediated compound degradation incubated for 60 mins by UV-based HPLC analysis
Assay type: ADME
Conditions: human, 1 h

Row | SMILES | Stability
10 | CN([C@@H](Cc1ccc(C(=N)N)cc1)C(=O)N[C@@H](CCCCN)C(=O)N[C@@H](C(N)=O)c1ccccc1)S(=O)(=O)c1ccccc1 | Stable

Tested on: not listed separately
Test: Cytotoxicity against human HeLa cells by CellTiter-Blue assay
Assay type: toxicity, cell-based
Conditions: not given

Row | SMILES | CC50
11 | Cc1ccc(S(=O)(=O)N[C@@H](CCCNC(=N)N)C(=O)N[C@@H](CCCCN)C(=O)N[C@@H](C(N)=O)c2ccccc2)cc1 | > 50 µM
12 | Cc1cc(C)c(S(=O)(=O)N[C@@H](CCCNC(=N)N)C(=O)N[C@@H](CCCCN)C(=O)N[C@@H](C(N)=O)c2ccccc2)c(C)c1 | > 50 µM
13 | Cc1ccc(S(=O)(=O)N(C)[C@@H](Cc2ccc(NC(=N)N)cc2)C(=O)N[C@@H](CCCCN)C(=O)N[C@@H](C(N)=O)c2ccccc2)cc1 | > 50 µM
14 | CN([C@@H](Cc1ccc(C(=N)N)cc1)C(=O)N[C@@H](CCCCN)C(=O)N[C@@H](C(N)=O)c1ccccc1)S(=O)(=O)c1ccccc1 | > 200 µM
15 | CN([C@@H](Cc1ccc(C(=N)N)cc1)C(=O)N[C@@H](CCCCN)C(=O)N[C@@H](C(N)=O)c1ccc(OCc2ccc(Cl)c(Cl)c2)cc1)S(=O)(=O)c1ccccc1 | 45.3 µM
16 | CN([C@@H](Cc1ccc(/C(N)=N/O)cc1)C(=O)N[C@@H](CCCCN)C(=O)N[C@@H](C(N)=O)c1ccccc1)S(=O)(=O)c1ccccc1 | > 50 µM

Molecular target: T3, Genome polyprotein (West Nile virus, UniProt P06935)
Test: Inhibition of West Nile virus NS2B-NS3 protease assessed as inhibition constant
Conditions: not given

T3 sequence (P06935 1371-1501 limits assumed): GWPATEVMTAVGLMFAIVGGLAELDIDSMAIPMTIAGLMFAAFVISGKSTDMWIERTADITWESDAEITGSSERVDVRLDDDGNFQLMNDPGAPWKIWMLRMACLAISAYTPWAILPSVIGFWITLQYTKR
T3 sequence (P06935 1502-2120 limits assumed): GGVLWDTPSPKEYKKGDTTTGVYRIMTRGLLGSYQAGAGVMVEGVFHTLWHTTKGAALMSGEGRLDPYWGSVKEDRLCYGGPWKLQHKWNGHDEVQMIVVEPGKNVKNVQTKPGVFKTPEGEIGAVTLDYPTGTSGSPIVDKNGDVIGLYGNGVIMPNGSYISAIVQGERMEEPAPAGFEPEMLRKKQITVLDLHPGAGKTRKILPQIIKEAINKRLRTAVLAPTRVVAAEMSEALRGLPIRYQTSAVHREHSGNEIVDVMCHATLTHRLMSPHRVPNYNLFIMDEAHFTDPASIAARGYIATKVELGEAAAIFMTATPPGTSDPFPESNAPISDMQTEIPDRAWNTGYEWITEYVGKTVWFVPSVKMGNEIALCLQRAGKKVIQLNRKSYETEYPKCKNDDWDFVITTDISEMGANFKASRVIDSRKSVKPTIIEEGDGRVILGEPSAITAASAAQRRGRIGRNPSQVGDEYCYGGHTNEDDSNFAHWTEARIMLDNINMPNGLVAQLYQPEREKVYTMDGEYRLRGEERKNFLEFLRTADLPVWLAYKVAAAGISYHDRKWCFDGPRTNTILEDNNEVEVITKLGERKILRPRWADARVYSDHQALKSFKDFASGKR

Row | SMILES | Ki
17 | CN([C@@H](Cc1ccc(C(=N)N)cc1)C(=O)N[C@@H](CCCCN)C(=O)N[C@@H](C(N)=O)c1ccc(OCc2ccc(Cl)c(Cl)c2)cc1)S(=O)(=O)c1ccccc1 | 5.1 µM

Molecular target: T2, Genome polyprotein
Test: Inhibition of DENV-2 NS2B-NS3 protease by biochemical enzymatic assay
Conditions: not given

Row | SMILES | IC50
18 | Cc1ccc(S(=O)(=O)N(C)[C@@H](Cc2ccc(NC(=N)N)cc2)C(=O)N[C@@H](CCCCN)C(=O)N[C@@H](C(N)=O)c2ccccc2)cc1 | 1.63 µM
19 | CN([C@@H](Cc1ccc(C(=N)N)cc1)C(=O)N[C@@H](CCCCN)C(=O)N[C@@H](C(N)=O)c1ccccc1)S(=O)(=O)c1ccccc1 | 0.21 µM
20 | CN([C@@H](Cc1ccc(C(=N)N)cc1)C(=O)N[C@@H](CCCCN)C(=O)N[C@@H](C(N)=O)c1ccc(OCc2ccc(Cl)c(Cl)c2)cc1)S(=O)(=O)c1ccccc1 | 0.089 µM
21 | CN([C@@H](Cc1ccc(C(=N)N)cc1)C(=O)N[C@@H](CCCCN)C(=O)N[C@@H](C(N)=O)c1ccc(O)cc1)S(=O)(=O)c1ccccc1 | 0.44 µM

Molecular target: Genome polyprotein (dengue virus type 2) (UniProt P29990)
Test: Inhibition of DENV-2 NS2B-NS3 protease at 50 uM by biochemical enzymatic assay relative to control
Conditions: not given

Row | SMILES | inhibition
22 | Cc1ccc(S(=O)(=O)N[C@@H](CCCNC(=N)N)C(=O)N[C@@H](CCCCN)C(=O)N[C@@H](C(N)=O)c2ccccc2)cc1 | 50.5%
23 | Cc1cc(C)c(S(=O)(=O)N[C@@H](CCCNC(=N)N)C(=O)N[C@@H](CCCCN)C(=O)N[C@@H](C(N)=O)c2ccccc2)c(C)c1 | 35.9%
24 | Cc1ccc(S(=O)(=O)N(C)[C@@H](Cc2ccc(NC(=N)N)cc2)C(=O)N[C@@H](CCCCN)C(=O)N[C@@H](C(N)=O)c2ccccc2)cc1 | 95%
25 | CN([C@@H](Cc1ccc(C(=N)N)cc1)C(=O)N[C@@H](CCCCN)C(=O)N[C@@H](C(N)=O)c1ccccc1)S(=O)(=O)c1ccccc1 | 98.9%
26 | CN([C@@H](Cc1ccc(C(=N)N)cc1)C(=O)N[C@@H](CCCCN)C(=O)N[C@@H](C(N)=O)c1ccc(OCc2ccc(Cl)c(Cl)c2)cc1)S(=O)(=O)c1ccccc1 | 98.6%
27 | CN([C@@H](Cc1ccc(/C(N)=N/O)cc1)C(=O)N[C@@H](CCCCN)C(=O)N[C@@H](C(N)=O)c1ccccc1)S(=O)(=O)c1ccccc1 | 58.5%
28 | CN([C@@H](Cc1ccc(C(=N)N)cc1)C(=O)N[C@@H](CCCCN)C(=O)N[C@@H](C(N)=O)c1ccc(O)cc1)S(=O)(=O)c1ccccc1 | 101%

Molecular target: T3, Genome polyprotein
Test: Inhibition of West Nile virus NS2B-NS3 protease by biochemical enzymatic assay
Conditions: not given

Row | SMILES | IC50
29 | CN([C@@H](Cc1ccc(C(=N)N)cc1)C(=O)N[C@@H](CCCCN)C(=O)N[C@@H](C(N)=O)c1ccc(OCc2ccc(Cl)c(Cl)c2)cc1)S(=O)(=O)c1ccccc1 | 12.1 µM

Molecular target: Genome polyprotein (West Nile virus) (UniProt P06935)
Test: Inhibition of West Nile virus NS2B-NS3 protease at 50 uM by biochemical enzymatic assay relative to control
Conditions: not given

Chain of Genome polyprotein (West Nile virus) (P06935 whole entry): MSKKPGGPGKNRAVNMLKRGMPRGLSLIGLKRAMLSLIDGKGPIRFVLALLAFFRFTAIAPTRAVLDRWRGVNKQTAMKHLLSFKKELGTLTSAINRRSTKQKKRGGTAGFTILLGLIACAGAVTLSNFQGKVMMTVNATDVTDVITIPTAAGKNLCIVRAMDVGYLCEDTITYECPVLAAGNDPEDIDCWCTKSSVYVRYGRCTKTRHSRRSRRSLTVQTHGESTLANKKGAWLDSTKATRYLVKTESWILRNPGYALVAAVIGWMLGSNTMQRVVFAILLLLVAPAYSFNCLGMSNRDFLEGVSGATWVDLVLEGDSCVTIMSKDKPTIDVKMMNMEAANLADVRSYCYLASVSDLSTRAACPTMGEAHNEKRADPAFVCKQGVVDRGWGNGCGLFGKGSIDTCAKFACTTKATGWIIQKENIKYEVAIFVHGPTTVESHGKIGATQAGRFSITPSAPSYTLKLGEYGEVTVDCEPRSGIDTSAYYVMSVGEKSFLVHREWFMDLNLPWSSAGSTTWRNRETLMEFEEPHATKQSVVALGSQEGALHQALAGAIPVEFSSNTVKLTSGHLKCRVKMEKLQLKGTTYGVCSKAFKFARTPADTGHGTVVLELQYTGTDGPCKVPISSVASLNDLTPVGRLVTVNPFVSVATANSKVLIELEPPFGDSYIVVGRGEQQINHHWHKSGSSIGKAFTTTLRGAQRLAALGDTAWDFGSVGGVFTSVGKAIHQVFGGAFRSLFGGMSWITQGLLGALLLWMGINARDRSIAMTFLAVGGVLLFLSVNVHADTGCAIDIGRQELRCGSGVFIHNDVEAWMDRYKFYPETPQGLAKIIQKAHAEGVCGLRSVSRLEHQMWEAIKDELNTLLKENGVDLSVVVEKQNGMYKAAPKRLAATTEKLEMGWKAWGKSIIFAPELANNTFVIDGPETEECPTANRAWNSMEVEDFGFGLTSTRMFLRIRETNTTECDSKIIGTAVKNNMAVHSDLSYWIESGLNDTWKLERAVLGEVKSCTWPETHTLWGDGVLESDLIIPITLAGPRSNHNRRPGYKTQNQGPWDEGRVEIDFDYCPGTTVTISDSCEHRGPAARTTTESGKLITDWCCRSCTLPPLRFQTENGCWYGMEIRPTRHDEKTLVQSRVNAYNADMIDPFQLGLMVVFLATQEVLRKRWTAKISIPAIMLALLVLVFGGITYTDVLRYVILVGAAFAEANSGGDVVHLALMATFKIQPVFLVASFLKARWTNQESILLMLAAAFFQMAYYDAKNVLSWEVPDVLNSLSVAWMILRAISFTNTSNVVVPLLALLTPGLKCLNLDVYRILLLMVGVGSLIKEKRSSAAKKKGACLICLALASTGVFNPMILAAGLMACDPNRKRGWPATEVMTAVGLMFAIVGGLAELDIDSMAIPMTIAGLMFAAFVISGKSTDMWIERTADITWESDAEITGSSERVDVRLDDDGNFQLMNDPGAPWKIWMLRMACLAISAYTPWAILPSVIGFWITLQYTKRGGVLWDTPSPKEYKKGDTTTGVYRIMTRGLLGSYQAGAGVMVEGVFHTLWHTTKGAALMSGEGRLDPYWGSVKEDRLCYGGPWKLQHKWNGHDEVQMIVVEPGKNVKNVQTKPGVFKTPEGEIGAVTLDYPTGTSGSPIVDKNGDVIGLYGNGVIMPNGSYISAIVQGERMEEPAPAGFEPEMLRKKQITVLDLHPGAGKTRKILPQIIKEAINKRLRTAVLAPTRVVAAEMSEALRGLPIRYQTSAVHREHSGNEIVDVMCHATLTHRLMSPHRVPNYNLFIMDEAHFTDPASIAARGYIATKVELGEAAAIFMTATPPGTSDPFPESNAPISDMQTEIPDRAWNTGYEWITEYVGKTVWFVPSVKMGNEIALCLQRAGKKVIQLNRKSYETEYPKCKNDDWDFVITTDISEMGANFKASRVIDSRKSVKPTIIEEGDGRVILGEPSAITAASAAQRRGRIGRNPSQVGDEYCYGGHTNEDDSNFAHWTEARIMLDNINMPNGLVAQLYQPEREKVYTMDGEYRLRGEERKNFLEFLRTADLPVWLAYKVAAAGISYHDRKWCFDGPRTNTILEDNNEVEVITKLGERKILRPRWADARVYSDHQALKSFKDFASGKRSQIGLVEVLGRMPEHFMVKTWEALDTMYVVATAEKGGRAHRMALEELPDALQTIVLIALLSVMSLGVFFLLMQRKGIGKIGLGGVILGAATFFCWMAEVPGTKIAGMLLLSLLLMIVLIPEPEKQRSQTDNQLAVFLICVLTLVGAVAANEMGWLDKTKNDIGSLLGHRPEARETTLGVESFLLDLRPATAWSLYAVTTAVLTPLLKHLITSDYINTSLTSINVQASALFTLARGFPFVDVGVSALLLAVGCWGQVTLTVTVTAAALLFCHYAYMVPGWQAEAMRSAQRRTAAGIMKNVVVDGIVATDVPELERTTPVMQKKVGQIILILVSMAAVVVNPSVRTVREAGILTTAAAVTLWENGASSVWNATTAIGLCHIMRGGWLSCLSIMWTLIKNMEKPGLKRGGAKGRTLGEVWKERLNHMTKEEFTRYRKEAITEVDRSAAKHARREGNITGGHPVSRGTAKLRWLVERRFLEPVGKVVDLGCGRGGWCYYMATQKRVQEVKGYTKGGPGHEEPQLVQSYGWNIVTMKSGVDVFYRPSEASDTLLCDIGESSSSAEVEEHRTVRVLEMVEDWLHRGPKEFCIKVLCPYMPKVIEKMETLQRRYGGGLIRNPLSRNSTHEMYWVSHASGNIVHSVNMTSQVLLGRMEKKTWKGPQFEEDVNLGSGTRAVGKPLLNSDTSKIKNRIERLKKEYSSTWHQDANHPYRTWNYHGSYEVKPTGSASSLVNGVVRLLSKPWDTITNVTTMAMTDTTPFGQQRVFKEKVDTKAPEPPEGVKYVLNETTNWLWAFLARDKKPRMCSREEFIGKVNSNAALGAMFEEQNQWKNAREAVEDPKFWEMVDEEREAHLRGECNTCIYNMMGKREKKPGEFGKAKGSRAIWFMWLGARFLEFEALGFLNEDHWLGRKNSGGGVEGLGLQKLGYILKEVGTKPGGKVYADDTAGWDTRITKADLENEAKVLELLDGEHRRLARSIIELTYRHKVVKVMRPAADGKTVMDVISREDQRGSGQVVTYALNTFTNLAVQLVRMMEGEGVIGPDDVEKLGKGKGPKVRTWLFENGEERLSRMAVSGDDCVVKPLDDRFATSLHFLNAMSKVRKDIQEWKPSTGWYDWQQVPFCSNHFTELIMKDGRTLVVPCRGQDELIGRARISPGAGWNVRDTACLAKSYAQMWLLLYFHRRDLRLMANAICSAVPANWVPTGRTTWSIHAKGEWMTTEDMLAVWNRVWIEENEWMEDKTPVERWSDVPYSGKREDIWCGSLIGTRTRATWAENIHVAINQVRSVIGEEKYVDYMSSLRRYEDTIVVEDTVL

Row | SMILES | inhibition
30 | Cc1ccc(S(=O)(=O)N[C@@H](CCCNC(=N)N)C(=O)N[C@@H](CCCCN)C(=O)N[C@@H](C(N)=O)c2ccccc2)cc1 | 17.7%
31 | Cc1cc(C)c(S(=O)(=O)N[C@@H](CCCNC(=N)N)C(=O)N[C@@H](CCCCN)C(=O)N[C@@H](C(N)=O)c2ccccc2)c(C)c1 | < 10%
32 | Cc1ccc(S(=O)(=O)N(C)[C@@H](Cc2ccc(NC(=N)N)cc2)C(=O)N[C@@H](CCCCN)C(=O)N[C@@H](C(N)=O)c2ccccc2)cc1 | < 10%
33 | CN([C@@H](Cc1ccc(C(=N)N)cc1)C(=O)N[C@@H](CCCCN)C(=O)N[C@@H](C(N)=O)c1ccccc1)S(=O)(=O)c1ccccc1 | 48.7%
34 | CN([C@@H](Cc1ccc(C(=N)N)cc1)C(=O)N[C@@H](CCCCN)C(=O)N[C@@H](C(N)=O)c1ccc(OCc2ccc(Cl)c(Cl)c2)cc1)S(=O)(=O)c1ccccc1 | 84.8%
35 | CN([C@@H](Cc1ccc(/C(N)=N/O)cc1)C(=O)N[C@@H](CCCCN)C(=O)N[C@@H](C(N)=O)c1ccccc1)S(=O)(=O)c1ccccc1 | < 10%
36 | CN([C@@H](Cc1ccc(C(=N)N)cc1)C(=O)N[C@@H](CCCCN)C(=O)N[C@@H](C(N)=O)c1ccc(O)cc1)S(=O)(=O)c1ccccc1 | 33.7%

Tested on: not listed separately
Test: Metabolic stability in rat liver microsomes assessed as parent compound remaining measured for 120 mins by UV-based HPLC analysis
Assay type: ADME, Microsome
Conditions: read-out: Stability

Row | SMILES | remaining at 2 h
37 | CN([C@@H](Cc1ccc(C(=N)N)cc1)C(=O)N[C@@H](CCCCN)C(=O)N[C@@H](C(N)=O)c1ccccc1)S(=O)(=O)c1ccccc1 | 100%

Molecular target: Prothrombin (Homo sapiens) (UniProt P00734)
Test: Inhibition of Thrombin (unknown origin) at 25 uM by biochemical assay relative to control
Conditions: not given

Row | SMILES | inhibition
38 | Cc1ccc(S(=O)(=O)N[C@@H](CCCNC(=N)N)C(=O)N[C@@H](CCCCN)C(=O)N[C@@H](C(N)=O)c2ccccc2)cc1 | < 10%
39 | Cc1cc(C)c(S(=O)(=O)N[C@@H](CCCNC(=N)N)C(=O)N[C@@H](CCCCN)C(=O)N[C@@H](C(N)=O)c2ccccc2)c(C)c1 | < 10%
40 | Cc1ccc(S(=O)(=O)N(C)[C@@H](Cc2ccc(NC(=N)N)cc2)C(=O)N[C@@H](CCCCN)C(=O)N[C@@H](C(N)=O)c2ccccc2)cc1 | < 10%
41 | CN([C@@H](Cc1ccc(C(=N)N)cc1)C(=O)N[C@@H](CCCCN)C(=O)N[C@@H](C(N)=O)c1ccccc1)S(=O)(=O)c1ccccc1 | 19.6%
42 | CN([C@@H](Cc1ccc(C(=N)N)cc1)C(=O)N[C@@H](CCCCN)C(=O)N[C@@H](C(N)=O)c1ccc(OCc2ccc(Cl)c(Cl)c2)cc1)S(=O)(=O)c1ccccc1 | 15.8%
43 | CN([C@@H](Cc1ccc(/C(N)=N/O)cc1)C(=O)N[C@@H](CCCCN)C(=O)N[C@@H](C(N)=O)c1ccccc1)S(=O)(=O)c1ccccc1 | < 10%
44 | CN([C@@H](Cc1ccc(C(=N)N)cc1)C(=O)N[C@@H](CCCCN)C(=O)N[C@@H](C(N)=O)c1ccc(O)cc1)S(=O)(=O)c1ccccc1 | 30.3%
